This experiment addresses γ-secretase (Homo sapiens, UniProt P49768). The experiment is described as follows: cell-free γ-secretase assay using detergent-solubilized membranes from HeLa cells and a recombinant APP-based substrate. Type of experiment: biochemical. Also noted: detergent-solubilized membranes from HeLa cells; endogenous in cells; host or cells: HeLa cells (detergent-solubilized membranes). The note with it: for IC50: 50% inhibition of Aβ40 production, at least three independent experiments, read-out: Cell-free Assay IC50. The procedure: Compounds were tested in a γ-secretase assay using detergent-solubilized membranes from HeLa cells and a recombinant APP-based substrate (Table 2, 18). […] Moreover, the γ-secretase inhibition appears to show dependence on length.

Non-standard residues stand in square brackets, D forms with d. Residues, ends and D or L forms follow the SMILES beside them. *: point of attachment. Boc = CC(C)(C)OC(=O)*; Aib = CC(C)(N)C(=O)O; Bn = c1ccc(C*)cc1

On to `CC[C@@H](C)[C@@H](NC(=O)[C@H](NC(=O)[C@H](NC(=O)OC(C)(C)C)C(C)C)C(C)C)C(=O)NC(C)(C)C(=O)N[C@@H](C(=O)N[C@@H](C(=O)NC(C)(C)C(=O)N[C@@H](C(=O)N[C@@H](C(=O)NC(C)(C)C(=O)OC)[C@H](C)CC)C(C)C)C(C)C)[C@H](C)OCc1ccccc1` [SEQ ID NO:15 D-peptide, Boc-Val-Val-Ile-Aib-Thr(OBz)-Val-Aib-Val-Ile-Aib-OMe] (Boc-[dV][dV][dI][Aib][dT](Bn)[dV][Aib][dV][dI][Aib]-OMe), for which the IC50 (in general, the concentration that gives 50% inhibition) came to 25 ± 3 nM.
On the same count and under the same terms, for `CC[C@H](C)[C@H](NC(=O)[C@@H](NC(=O)[C@@H](NC(=O)OC(C)(C)C)C(C)C)C(C)C)C(=O)NC(C)(C)C(=O)N[C@H](C(=O)N[C@H](C(=O)NC(C)(C)C(=O)N[C@H](C(=O)N[C@H](C(=O)NC(C)(C)C(=O)OC)[C@@H](C)CC)C(C)C)C(C)C)[C@@H](C)OCc1ccccc1` [SEQ ID NO:15 L-peptide, Boc-Val-Val-Ile-Aib-Thr(OBz)-Val-Aib-Val-Ile-Aib-OMe] (Boc-VVI[Aib]T(Bn)V[Aib]VI[Aib]-OMe) the value was 10000 nM; for `CC[C@@H](C)[C@@H](NC(=O)[C@H](NC(=O)[C@H](NC(=O)C(C)(C)NC(=O)OC(C)(C)C)C(C)C)C(C)C)C(=O)NC(C)(C)C(=O)N[C@@H](C(=O)N[C@@H](C(=O)NC(C)(C)C(=O)N[C@@H](C(=O)N[C@@H](C(=O)NC(C)(C)C(=O)OC)[C@H](C)CC)C(C)C)C(C)C)[C@H](C)OCc1ccccc1` [SEQ ID NO:16 D-peptide, Boc-Aib-Val-Val-Ile-Aib-Thr(OBz)-Val-Aib-Val-Ile-Aib-OMe] (Boc-[Aib][dV][dV][dI][Aib][dT](Bn)[dV][Aib][dV][dI][Aib]-OMe), 28 ± 19 nM.
The same measure, in the same setting: in the case of `CC[C@H](C)[C@H](NC(=O)[C@@H](NC(=O)[C@@H](NC(=O)C(C)(C)NC(=O)OC(C)(C)C)C(C)C)C(C)C)C(=O)NC(C)(C)C(=O)N[C@H](C(=O)N[C@H](C(=O)NC(C)(C)C(=O)N[C@H](C(=O)N[C@H](C(=O)NC(C)(C)C(=O)OC)[C@@H](C)CC)C(C)C)C(C)C)[C@@H](C)OCc1ccccc1` [SEQ ID NO:16 L-peptide, Boc-Aib-Val-Val-Ile-Aib-Thr(OBz)-Val-Aib-Val-Ile-Aib-OMe] (Boc-[Aib]VVI[Aib]T(Bn)V[Aib]VI[Aib]-OMe) it was 3100 nM; in that of `CC[C@@H](C)[C@@H](NC(=O)[C@H](NC(=O)[C@H](NC(=O)C(C)(C)NC(=O)CNC(=O)OC(C)(C)C)C(C)C)C(C)C)C(=O)NC(C)(C)C(=O)N[C@@H](C(=O)N[C@@H](C(=O)NC(C)(C)C(=O)N[C@@H](C(=O)N[C@@H](C(=O)NC(C)(C)C(=O)OC)[C@H](C)CC)C(C)C)C(C)C)[C@H](C)OCc1ccccc1` [SEQ ID NO:17 D-peptide, Boc-Gly-Aib-Val-Val-Ile-Aib-Thr(OBz)-Val-Aib-Val-Ile-Aib-OMe] (Boc-G[Aib][dV][dV][dI][Aib][dT](Bn)[dV][Aib][dV][dI][Aib]-OMe), 12 ± 4 nM.
In the case of `CC[C@H](C)[C@H](NC(=O)[C@@H](NC(=O)[C@@H](NC(=O)C(C)(C)NC(=O)CNC(=O)OC(C)(C)C)C(C)C)C(C)C)C(=O)NC(C)(C)C(=O)N[C@H](C(=O)N[C@H](C(=O)NC(C)(C)C(=O)N[C@H](C(=O)N[C@H](C(=O)NC(C)(C)C(=O)OC)[C@@H](C)CC)C(C)C)C(C)C)[C@@H](C)OCc1ccccc1` [SEQ ID NO:17 L-peptide, Boc-Gly-Aib-Val-Val-Ile-Aib-Thr(OBz)-Val-Aib-Val-Ile-Aib-OMe] (Boc-G[Aib]VVI[Aib]T(Bn)V[Aib]VI[Aib]-OMe), the IC50 was determined as 360 nM. Besides, the “increase in potency over the reference L-decapeptide having SEQ ID NO:10” value (L-series, cell-free assay) was around 100 fold.

The values above are taken from patent publication US7501397B2, “Helical peptidomimetics with enhanced activity” (The Brigham and Women's Hospital, Inc., priority 2004, dated 2009).
